Results taken from patent US6242462A, “Pharmacological agents” (Eli Lilly and Company, priority 2000, dated 2001).
Values belong to the compound of their own block, whether it stands above or below them.

Key:
[1] = target: T1, human GluR4 (Homo sapiens, UniProt P48058); assay: Binding: displacement of 3H AMPA on GluR4-expressing cells (Table 1)
T1 construct: expressed in transfected cells; host or cells: HEK293
Source text: (§1) The selectivity of compounds acting at GluR5 receptors may be determined by measurement of activity at other AMPA and kainate receptors including receptor-ligand binding studies and whole-cell voltage clamp electro-physiological recordings of functional activity at human GluR1, GluR2, GluR3 and GluR4 receptors (Fletcher et al., 1995, Recept. Channels 3; 21-31), receptor-ligand binding studies and whole-cell voltage clamp electrophysiological recordings of functional activity at human GluR6 receptors (Hoo et al., Recept. Channels 2; 327-338) and whole-cell voltage clamp electrophysiological recordings of functional activity at AMPA receptors in acutely isolated cerebellar Purkinje neurons (Bleakman et al., 1996, Mol. Pharmacol. 49; 581-585) and other tissues expressing AMPA receptors (Fletcher and Lodge, 1996, Phannacol. Ther. 70; 65-89).
(§2) Cell lines (HEK293 cells) stably transfected with human GluR5 receptors were employed. Displacement of 3H AMPA by increasing concentrations of test compound was used on GluR1-4-expressing cells and 3H kainate (KA) on GluR5 and expressing cells. Estimated activity (Ki) in nM was as follows.

[2] = target: T2, human GluR1 (Homo sapiens, UniProt P42261); assay: Binding: displacement of 3H AMPA on GluR1-expressing cells (Table 1)
T2 construct: expressed in transfected cells; host or cells: HEK293
T2 sequence (P42261 19-906): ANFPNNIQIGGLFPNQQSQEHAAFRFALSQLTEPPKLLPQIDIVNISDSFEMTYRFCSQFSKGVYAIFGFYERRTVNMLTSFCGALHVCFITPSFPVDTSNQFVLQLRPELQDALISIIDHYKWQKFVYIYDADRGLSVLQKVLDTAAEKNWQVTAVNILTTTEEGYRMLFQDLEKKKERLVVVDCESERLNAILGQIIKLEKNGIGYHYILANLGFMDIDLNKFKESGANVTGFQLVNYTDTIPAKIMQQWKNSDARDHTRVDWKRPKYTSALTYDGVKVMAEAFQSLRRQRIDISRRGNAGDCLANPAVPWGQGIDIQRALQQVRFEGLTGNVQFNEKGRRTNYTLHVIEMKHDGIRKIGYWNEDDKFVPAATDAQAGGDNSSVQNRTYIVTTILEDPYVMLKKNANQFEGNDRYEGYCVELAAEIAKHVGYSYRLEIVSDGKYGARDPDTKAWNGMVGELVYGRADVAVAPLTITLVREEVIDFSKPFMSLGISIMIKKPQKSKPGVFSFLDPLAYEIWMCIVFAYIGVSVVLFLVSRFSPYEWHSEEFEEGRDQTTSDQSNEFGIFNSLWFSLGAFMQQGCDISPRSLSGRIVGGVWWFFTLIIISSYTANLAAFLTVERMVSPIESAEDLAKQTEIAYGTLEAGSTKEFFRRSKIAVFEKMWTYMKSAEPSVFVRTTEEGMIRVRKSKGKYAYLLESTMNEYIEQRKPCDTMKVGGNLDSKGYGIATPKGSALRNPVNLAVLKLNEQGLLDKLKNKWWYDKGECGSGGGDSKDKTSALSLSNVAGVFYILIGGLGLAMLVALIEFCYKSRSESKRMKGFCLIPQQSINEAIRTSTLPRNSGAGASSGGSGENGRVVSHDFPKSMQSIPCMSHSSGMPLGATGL
Source text: as §1, §2

[3] = target: T3, human GluR2 (Homo sapiens, UniProt P42262); assay: Patch-clamp electrophysiology, HEK293 cells stably transfected with human GluR2, vs 100 μM AMPA (Table 2); assay type: cell-based
T3 construct: expressed in transfected cells; host or cells: HEK293
Source text: as §1
(§3) Functional studies were carried out on HEK293 cells stably transfected with human GluR receptors and on acutely isolated dorsal root ganglion neurons (DRG) using patch-clamp technology (Bleakman et al., 1996, Mol. Pharmacol., 49, 581-585). IC50 values (μM) for test Compound A were estimated for GluR1-4 vs 100 μM AMPA and GluR5 and GluR6 vs 100 μM KA with the following results: […]

[4] = target: T4, human GluR5 (Homo sapiens, UniProt P39086); assay: Patch-clamp electrophysiology, HEK293 cells stably transfected with human GluR5, vs 100 μM KA (Table 2); assay type: cell-based; parameters: expressed in transfected cells; host or cells: HEK293
Source text: (§4) GluR5 receptor antagonists may be identified by radiolabelled ligand binding studies at the cloned and expressed human GluR5 receptor (Korczak et al., 1994, Recept. Channels 3; 41-49), by whole cell voltage clamp electro-physiological recordings of functional activity at the human GluR5 receptor (Korczak et al., 1994, Recept. Channels 3; 41-49) and by whole cell voltage clamp electro-physiological recordings of currents in acutely isolated rat dorsal root ganglion neurons (Bleakman et al., 1996, Mol. Pharmacol. 49; 581-585).
as §3
Target sequence in this assay (P39086 31-905 isoform P39086-2 limits assumed): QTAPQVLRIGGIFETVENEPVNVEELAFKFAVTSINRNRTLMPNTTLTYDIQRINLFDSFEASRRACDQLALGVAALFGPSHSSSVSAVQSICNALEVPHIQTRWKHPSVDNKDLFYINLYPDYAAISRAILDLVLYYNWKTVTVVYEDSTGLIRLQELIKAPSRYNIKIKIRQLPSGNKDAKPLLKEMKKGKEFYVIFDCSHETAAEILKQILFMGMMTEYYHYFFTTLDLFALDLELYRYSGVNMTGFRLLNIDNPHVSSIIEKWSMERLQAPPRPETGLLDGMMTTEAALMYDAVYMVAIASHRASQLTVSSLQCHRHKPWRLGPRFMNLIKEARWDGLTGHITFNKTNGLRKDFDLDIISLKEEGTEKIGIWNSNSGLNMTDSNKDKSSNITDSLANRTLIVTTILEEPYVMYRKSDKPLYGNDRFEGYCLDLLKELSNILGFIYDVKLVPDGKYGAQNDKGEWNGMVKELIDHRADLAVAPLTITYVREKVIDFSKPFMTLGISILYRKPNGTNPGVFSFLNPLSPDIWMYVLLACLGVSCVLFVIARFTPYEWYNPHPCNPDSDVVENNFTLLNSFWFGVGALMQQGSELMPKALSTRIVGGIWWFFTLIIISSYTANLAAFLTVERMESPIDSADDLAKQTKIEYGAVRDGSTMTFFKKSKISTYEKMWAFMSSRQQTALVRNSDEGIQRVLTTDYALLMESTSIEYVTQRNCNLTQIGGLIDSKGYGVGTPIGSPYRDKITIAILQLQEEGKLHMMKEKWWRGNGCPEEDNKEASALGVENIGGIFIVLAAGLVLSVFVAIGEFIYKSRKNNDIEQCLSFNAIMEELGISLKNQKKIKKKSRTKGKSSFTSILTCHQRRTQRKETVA

[5] = target: T5, human GluR3 (Homo sapiens, UniProt P42263); assay: Binding: displacement of 3H AMPA on GluR3-expressing cells (Table 1)
T5 construct: expressed in transfected cells; host or cells: HEK293
Source text: as §1, §2

[6] = target: T2, human GluR1; assay: Patch-clamp electrophysiology, HEK293 cells stably transfected with human GluR1, vs 100 μM AMPA (Table 2); assay type: cell-based
Source text: as §1, §3

[7] = target: T4, human GluR5; assay: Selectivity at GluR5 over other ionotropic glutamate receptors (binding and electrophysiology); conditions: GluR5 vs other ionotropic glutamate receptors
Target sequence in this assay (P39086 31-918): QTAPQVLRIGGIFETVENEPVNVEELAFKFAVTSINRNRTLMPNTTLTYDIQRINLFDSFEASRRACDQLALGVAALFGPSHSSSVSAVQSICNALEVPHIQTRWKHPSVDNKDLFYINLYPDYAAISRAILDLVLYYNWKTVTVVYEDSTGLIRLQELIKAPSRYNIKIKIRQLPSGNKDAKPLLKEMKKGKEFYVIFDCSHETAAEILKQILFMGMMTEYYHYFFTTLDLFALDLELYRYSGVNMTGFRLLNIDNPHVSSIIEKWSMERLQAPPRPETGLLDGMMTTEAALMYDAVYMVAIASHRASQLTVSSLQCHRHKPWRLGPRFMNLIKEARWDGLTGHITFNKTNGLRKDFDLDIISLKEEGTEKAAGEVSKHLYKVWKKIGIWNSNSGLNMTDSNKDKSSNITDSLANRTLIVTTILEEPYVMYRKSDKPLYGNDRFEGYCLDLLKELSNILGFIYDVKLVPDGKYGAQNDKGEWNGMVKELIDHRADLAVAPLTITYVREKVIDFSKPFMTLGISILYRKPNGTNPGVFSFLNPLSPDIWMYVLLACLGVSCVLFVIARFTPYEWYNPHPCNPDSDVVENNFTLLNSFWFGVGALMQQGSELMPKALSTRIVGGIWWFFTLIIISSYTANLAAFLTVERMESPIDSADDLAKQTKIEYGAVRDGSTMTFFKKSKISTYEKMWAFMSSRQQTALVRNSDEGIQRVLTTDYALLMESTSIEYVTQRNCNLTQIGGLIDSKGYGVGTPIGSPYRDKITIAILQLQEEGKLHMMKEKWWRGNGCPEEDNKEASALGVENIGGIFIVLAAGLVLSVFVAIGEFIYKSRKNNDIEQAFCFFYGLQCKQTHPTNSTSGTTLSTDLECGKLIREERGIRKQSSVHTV

[8] = target: T6, human GluR6 (Homo sapiens, UniProt Q13002); assay: Patch-clamp electrophysiology, HEK293 cells stably transfected with human GluR6, vs 100 μM KA (Table 2); assay type: cell-based
T6 construct: expressed in transfected cells; host or cells: HEK293
T6 sequence (Q13002 32-908): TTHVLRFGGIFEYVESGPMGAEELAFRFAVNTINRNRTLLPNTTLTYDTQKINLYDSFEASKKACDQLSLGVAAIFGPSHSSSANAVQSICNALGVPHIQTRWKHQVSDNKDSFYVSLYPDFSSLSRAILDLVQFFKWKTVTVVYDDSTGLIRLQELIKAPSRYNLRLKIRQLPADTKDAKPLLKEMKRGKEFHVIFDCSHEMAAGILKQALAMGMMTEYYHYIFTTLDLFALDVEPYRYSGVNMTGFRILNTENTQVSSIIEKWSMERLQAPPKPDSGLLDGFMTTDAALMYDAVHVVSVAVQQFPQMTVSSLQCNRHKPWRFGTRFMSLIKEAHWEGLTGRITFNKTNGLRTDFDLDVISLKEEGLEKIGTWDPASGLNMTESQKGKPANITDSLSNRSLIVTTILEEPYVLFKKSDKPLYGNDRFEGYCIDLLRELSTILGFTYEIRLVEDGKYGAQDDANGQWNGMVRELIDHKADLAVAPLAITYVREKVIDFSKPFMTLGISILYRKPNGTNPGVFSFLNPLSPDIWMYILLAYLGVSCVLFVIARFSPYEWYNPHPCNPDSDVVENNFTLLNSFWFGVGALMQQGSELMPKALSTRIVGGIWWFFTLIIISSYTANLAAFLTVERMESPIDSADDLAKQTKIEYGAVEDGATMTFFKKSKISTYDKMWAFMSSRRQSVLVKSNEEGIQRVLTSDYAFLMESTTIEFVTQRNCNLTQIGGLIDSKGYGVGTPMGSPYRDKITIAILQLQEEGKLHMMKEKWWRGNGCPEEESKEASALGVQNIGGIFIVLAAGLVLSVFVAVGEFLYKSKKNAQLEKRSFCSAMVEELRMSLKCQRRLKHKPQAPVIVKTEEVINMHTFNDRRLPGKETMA
Source text: as §1, §3

[9] = target: T3, human GluR2; assay: Binding: displacement of 3H AMPA on GluR2-expressing cells (Table 1)
Source text: (§5) Cell lines (HEK293 cells) stably transfected with human GluR5 receptors were employed. Displacement of 3H AMPA by increasing concentrations of test compound was used on GluR1-4-expressing cells and 3H kainate (KA) on GluR5 and expressing cells.

[10] = test system: acutely isolated dorsal root ganglion neurons (DRG); assay: Patch-clamp electrophysiology, kainate induced current in acutely isolated dorsal root ganglion neurons (Table 2); assay type: cell-based; conditions: Rattus norvegicus, DRG neuron, based on % inhibition of 30 μM kainate induced current
Source text: as §4
Functional studies were carried out on HEK293 cells stably transfected with human GluR receptors and on acutely isolated dorsal root ganglion neurons (DRG) using patch-clamp technology (Bleakman et al., 1996, Mol. Pharmacol., 49, 581-585). IC50 values (μM) for test Compound A were estimated for GluR1-4 vs 100 μM AMPA and GluR5 and GluR6 vs 100 μM KA with the following results:
*Based on % inhibition of 30 μM kainate induced current.

[11] = target: T6, human GluR6; assay: Binding: displacement of radioligand (3H kainate) on GluR6 (Table 1); conditions: read-out: % displ, GluR6
Source text: as §1, §2

[12] = target: T1, human GluR4; assay: Patch-clamp electrophysiology, HEK293 cells stably transfected with human GluR4, vs 100 μM AMPA (Table 2); assay type: cell-based
Source text: as §1, §3

[13] = target: T5, human GluR3; assay: Patch-clamp electrophysiology, HEK293 cells stably transfected with human GluR3, vs 100 μM AMPA (Table 2); assay type: cell-based
Source text: as §1, §3

[14] = target: T4, human GluR5; assay: Binding: displacement of 3H kainate on GluR5-expressing HEK293 cells (Table 1); parameters: expressed in transfected cells; host or cells: HEK293
Source text: as §5
Target sequence in this assay (P39086 31-905 isoform P39086-2 limits assumed): as the sequence (P39086 31-905 isoform P39086-2 limits assumed) above

[15] = test system: acetic acid induced writhing; assay: Acetic acid induced mouse writhing test; assay type: in vivo, male CD-1 mice; conditions: mice; 1, 3, 10 and 30 mg/kg; 0.5% acetic acid i.p.
Method: 3) Acetic acid induced mouse writhing test.
This test measures the ability of a test compound to reduce the amount of writhing induced by intraperitoneal injection of acetic acid in mice.
Doses of test compound or control are administered to male CD-1 mice. Each animal is then administered 0.5% acetic acid in a volume of […] intraperitoneally. The animals are then placed in individual plexiglas observation chambers and the total number of writhes (flattening of the abdominal wall and asymmetric stretching and extending of the body and hindlimbs) recorded between 5 and 10 minutes after acetic acid administration.

[16] = test system: pain; assay: Animal models of pain; conditions: in vivo
[17] = test system: tail flick response; assay: Tail Flick Test in mice; assay type: in vivo; conditions: subcutaneous, 3, 10, and 30 mg/kg
Method: (§6) This well known test measures the effect of a test compound on the time taken for an animal to flick its tail out of a focused beam of light. In the test, a beam of light from a lamp is focused on a surface, and the lamp is then switched off. Treated and untreated (control) animals are restrained, with their tails positioned at the focal point of the beam of light from the lamp. The lamp is then switched on, and the time taken for the animal's tail to respond by moving is recorded.

[18] = test system: tail flick response; assay: Tail Flick Test in cynomolgous primates; assay type: in vivo; conditions: oral, 0.03, 0.1, 0.3 and 3 mg/kg
Method: as §6

T1 sequence (P48058 21-902): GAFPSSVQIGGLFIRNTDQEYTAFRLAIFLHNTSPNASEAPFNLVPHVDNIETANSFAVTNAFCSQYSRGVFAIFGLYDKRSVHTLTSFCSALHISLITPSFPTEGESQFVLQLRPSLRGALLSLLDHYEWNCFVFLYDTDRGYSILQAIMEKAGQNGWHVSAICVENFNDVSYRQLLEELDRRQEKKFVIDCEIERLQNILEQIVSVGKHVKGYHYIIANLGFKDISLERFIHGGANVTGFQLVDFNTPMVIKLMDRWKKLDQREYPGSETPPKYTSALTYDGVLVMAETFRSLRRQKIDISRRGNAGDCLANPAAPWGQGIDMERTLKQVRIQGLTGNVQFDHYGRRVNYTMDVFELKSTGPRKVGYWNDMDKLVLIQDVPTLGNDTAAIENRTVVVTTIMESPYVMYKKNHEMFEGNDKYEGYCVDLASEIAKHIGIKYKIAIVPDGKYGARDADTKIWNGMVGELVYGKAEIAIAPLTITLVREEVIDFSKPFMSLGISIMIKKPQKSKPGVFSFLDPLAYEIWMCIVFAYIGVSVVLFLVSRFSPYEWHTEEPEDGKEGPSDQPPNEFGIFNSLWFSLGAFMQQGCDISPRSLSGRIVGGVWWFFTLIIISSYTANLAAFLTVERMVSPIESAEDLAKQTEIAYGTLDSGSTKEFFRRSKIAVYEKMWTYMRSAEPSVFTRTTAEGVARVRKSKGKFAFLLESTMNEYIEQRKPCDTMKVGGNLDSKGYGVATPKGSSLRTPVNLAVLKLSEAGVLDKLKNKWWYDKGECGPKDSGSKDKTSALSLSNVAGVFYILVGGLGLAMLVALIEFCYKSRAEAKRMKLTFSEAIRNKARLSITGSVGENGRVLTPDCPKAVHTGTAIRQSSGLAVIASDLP

- inhibition at 1000 µM ([1]; at 1 mM, 3H AMPA): 23%
- inhibition at 1000 µM ([2]; at 1 mM, 3H AMPA): 21%
Structure (SMILES): O=C(O)c1ccc(C[C@H]2CC[C@H]3CN[C@H](C(=O)O)C[C@H]3C2)cc1 (relative stereo) [C, 3SR, 4aRS, 6SR, 8aRS-6-(((4-carboxy)phenyl)methyl)-1,2,3-4,4a,5,6,7,8,8a-decahydroisoquinoline-3-carboxylic acid]

- IC50 [3]: > 100 µM
- IC50 [4]: 3.9 ± 0.5 µM
- Estimated activity (Ki), GluR3 [5]: 47.793 µM
- IC50 [6]: > 100 µM
- selective GluR5 receptor antagonism [7]: selective GluR5 receptor antagonists
- IC50 [8]: > 100 µM
- Estimated activity (Ki), GluR4 ([1]; displacement of 3H AMPA): 31.606 µM
- Estimated activity (Ki), GluR2 [9]: 35.337 µM
- inhibition at 100 µM [11]: 6%
- IC50 [12]: > 100 µM
- IC50 [13]: > 100 µM
- Estimated activity (Ki), GluR5 [14]: 3.061 µM
- Estimated activity (Ki), GluR1 ([2]; displacement of 3H AMPA): 150.686 µM
Structure (SMILES): O=C(O)[C@@H]1C[C@H]2C[C@@H](COCc3nn[nH]n3)CC[C@H]2CN1 (relative stereo) [Compound A, 3SR, 4aRS, 6SR, 8aRS-6-[(1(2)H-tetrazol-5-yl)methoxy-methyl]decahydroisoquinoline-3-carboxylic acid]
- IC50 [10]: 0.6 µM

- selective GluR5 receptor antagonism [7]: selective GluR5 receptor antagonists
- selective GluR5 receptor antagonism ([7]; listed as (3S,4aR,6S,8aR)-6-[(1(2)H-tetrazol-5-yl)methoxymethyl]decahydroisoquinoline-3-ca): selective GluR5 antagonist
- selective GluR5 receptor antagonism ([7]; listed as Example 1): selective GluR5 antagonist
- Estimated activity (Ki), GluR5 [14]: 5.823 µM
Structure (SMILES): O=C(O)[C@@H]1C[C@H]2C[C@@H](COCc3nn[nH]n3)CC[C@H]2CN1 [B, 3S,4aR,6S,8aR-6-((((1H-Tetrazole-5-yl)methyl)oxy)methyl)-1,2,3,4,4a,5,6,7,8,8a-decahydroisoquinoline-3-carboxylic Acid]
- writhing [15]: dose dependent reduction in writhing
- effectiveness in animal models of pain [16]: effective in animal models of pain
- response time (tail flick) [17]: dose dependent increase in response time
- response time (tail flick) [18]: dose dependent increase in response time

- IC50 [8]: > 100 µM
- IC50 [12]: > 100 µM
Structure (SMILES): O=C(O)c1ccc(C[C@H]2CC[C@H]3CN[C@H](C(=O)O)C[C@H]3C2)cc1 [D, 3S,4aR,6S,8aR-6-(((4-carboxy)phenyl)methyl)-1,2,3,4,4a,5,6,7,8,8a-decahydroisoquinoline-3-carboxylic acid]
- IC50 [10]: 0.98 µM
